Laboratory results as given in ChEMBL document CHEMBL1201862, “PubChem BioAssay data set” (2004).
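Protocol summary: plate cells (96-well), add compound at 5 concentrations, incubate 48 h, interpolate endpoints linearly. Abbreviation: GI50, concentration required for 50% inhibition of growth.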 Calls of active or inactive are those of the source. No stated cut-off is given here; in the data, active = GI50 up to about 1.1 µM and inactive = higher.

What was measured:
Experiment in all cases: growth of human tumour cells (NCI), 48 h
MOLT-4 = test system: MOLT-4
RPMI-8226 = test system: RPMI-8226
NCI-H460 = test system: NCI-H460
SF-268 = test system: SF-268
MDA-N = test system: MDA-N
CCRF-CEM = test system: CCRF-CEM
UACC-62 = test system: UACC-62
SK-MEL-28 = test system: SK-MEL-28
MCF7 = test system: MCF7
HCT-116 = test system: HCT-116
OVCAR-4 = test system: OVCAR-4
LOX IMVI = test system: LOX IMVI
SF-295 = test system: SF-295
UO-31 = test system: UO-31
SW-620 = test system: SW-620
DU-145 = test system: DU-145
IGROV-1 = test system: IGROV-1
BT-549 = test system: BT-549
K562 = test system: K562
HOP-92 = test system: HOP-92

Row | SMILES | GI50 (MOLT-4) | GI50 (RPMI-8226) | GI50 (NCI-H460) | GI50 (SF-268) | GI50 (MDA-N) | GI50 (CCRF-CEM) | GI50 (UACC-62) | GI50 (SK-MEL-28) | GI50 (MCF7) | GI50 (HCT-116) | GI50 (OVCAR-4) | GI50 (LOX IMVI) | GI50 (SF-295) | GI50 (UO-31) | GI50 (SW-620) | GI50 (DU-145) | GI50 (IGROV-1) | GI50 (BT-549) | GI50 (K562) | GI50 (HOP-92)
1 | O=C(/N=C1/OC(CN2CCOCC2)CN1C(=O)Nc1ccccc1)Nc1ccccc1 (stereo not given) | > 100 µM (inactive) | > 100 µM (inactive) | > 100 µM (inactive) | > 100 µM (inactive) | > 100 µM (inactive) | > 100 µM (inactive) | > 100 µM (inactive) | > 100 µM (inactive) | > 100 µM (inactive) | > 100 µM (inactive) | > 100 µM (inactive) | > 100 µM (inactive) | > 100 µM (inactive) | > 100 µM (inactive) | > 100 µM (inactive) | > 100 µM (inactive) | > 100 µM (inactive) | > 100 µM (inactive) | > 100 µM (inactive) | 94.6 µM (inactive)
2 | N#CC(C#N)=C(N)/C(C#N)=C/c1ccc2ccccc2n1 | 30.3 µM (inactive) | 36.9 µM (inactive) | 85.7 µM (inactive) | > 100 µM (inactive) | 32.7 µM (inactive) | 24.1 µM (inactive) | 18.8 µM (inactive) | 18.6 µM (inactive) | 30.7 µM (inactive) | 15.1 µM (inactive) | 35.4 µM (inactive) | 19.3 µM (inactive) | 21.3 µM (inactive) | 15.5 µM (inactive) | > 10 µM (inactive) | > 100 µM (inactive) | 16.9 µM (inactive) | 26.5 µM (inactive) | 32.6 µM (inactive) | 18.3 µM (inactive)
3 | COc1ccc(C(=O)Nc2ccc3oc(-c4ccccc4)nc3c2)cc1 | > 100 µM (inactive) | > 100 µM (inactive) | > 100 µM (inactive) | > 100 µM (inactive) | > 100 µM (inactive) | > 100 µM (inactive) | > 100 µM (inactive) | > 100 µM (inactive) | > 100 µM (inactive) | > 100 µM (inactive) | > 100 µM (inactive) | > 100 µM (inactive) | > 100 µM (inactive) | 0.227 µM (active) | > 100 µM (inactive) | > 100 µM (inactive) | > 100 µM (inactive) | > 100 µM (inactive) | > 100 µM (inactive) | > 100 µM (inactive)
4 | c1ccc(COc2nc3cc(C45CC6CC(CC(C6)C4)C5)ccc3[nH]2)cc1 | 3.35 µM (inactive) | 5.07 µM (inactive) | 9.2 µM (inactive) | 31.3 µM (inactive) | 11.9 µM (inactive) | 10.2 µM (inactive) | 7.13 µM (inactive) | 17.1 µM (inactive) | 4.7 µM (inactive) | 9.08 µM (inactive) | > 31.3 µM (inactive) | 12.1 µM (inactive) | 6.7 µM (inactive) | 6.22 µM (inactive) | 21.4 µM (inactive) | 20.1 µM (inactive) | 13.6 µM (inactive) | 19.8 µM (inactive) | 1.19 µM (inactive) | 7.29 µM (inactive)
5 | COC1=CC(=O)N(C)C(O)C1(C#N)OC1OC(CO)C(O)C(O)C1O (stereo not given) | > 100 µM (inactive) | > 100 µM (inactive) | > 100 µM (inactive) | > 100 µM (inactive) | > 100 µM (inactive) | > 10 µM (inactive) | > 100 µM (inactive) | > 100 µM (inactive) | > 100 µM (inactive) | > 100 µM (inactive) | > 100 µM (inactive) | > 100 µM (inactive) | > 100 µM (inactive) | > 100 µM (inactive) | > 100 µM (inactive) | > 100 µM (inactive) | > 100 µM (inactive) | > 100 µM (inactive) | > 10 µM (inactive) | > 100 µM (inactive)
6 | C/C(=C\c1csc(C)n1)[C@@H]1C[C@@H]2O[C@@H]2CCC[C@H](C)[C@H](O)[C@@H](C)C(=O)C(C)(C)[C@@H](O)CC(=O)O1.C/C(=C\c1csc(C)n1)[C@@H]1C[C@@H]2O[C@]2(C)CCC[C@H](C)[C@H](O)[C@@H](C)C(=O)C(C)(C)[C@@H](O)CC(=O)O1 | 0.00738 µM (active) | 0.00995 µM (active) | 0.00129 µM (active) | 0.0122 µM (active) | 0.000326 µM (active) | 0.0478 µM (active) | 0.00767 µM (active) | 0.00475 µM (active) | 0.00293 µM (active) | 0.00173 µM (active) | 1 µM (active) | 0.00272 µM (active) | 0.00567 µM (active) | 0.0297 µM (active) | 0.00255 µM (active) | 0.00604 µM (active) | 0.00241 µM (active) | 0.0569 µM (active) | 0.00787 µM (active) | 0.0698 µM (active)
7 | CC(=O)NC1C(OCc2ccccc2)OC(CO)C(O)C1OCC(=O)NC(C(=O)NC(CCC(=O)NCCCCCC(=O)Nc1ccc2c(c1)CN1C(=O)c3ccccc3C1=N2)C(N)=O)C(C)C (stereo not given) | > 100 µM (inactive) | 97.7 µM (inactive) | 20.8 µM (inactive) | 19.7 µM (inactive) | 62.7 µM (inactive) | > 100 µM (inactive) | 20.9 µM (inactive) | 20.8 µM (inactive) | 16.9 µM (inactive) | 36.2 µM (inactive) | 21.9 µM (inactive) | 34.4 µM (inactive) | 24.7 µM (inactive) | 47.4 µM (inactive) | 50.6 µM (inactive) | 63.8 µM (inactive) | 20.3 µM (inactive) | 21.6 µM (inactive) | 36 µM (inactive) | 95.7 µM (inactive)
8 | CC(C)(C)c1cc(OCc2nnc(S)n2N)c(Cl)cc1OCc1nnc(S)n1N | 22.6 µM (inactive) | 29.5 µM (inactive) | 24 µM (inactive) | 45.5 µM (inactive) | 41.3 µM (inactive) | 22.9 µM (inactive) | 20.7 µM (inactive) | 45.9 µM (inactive) | 38.5 µM (inactive) | 33 µM (inactive) | 43.3 µM (inactive) | 34.8 µM (inactive) | 43.1 µM (inactive) | 63.2 µM (inactive) | 43.2 µM (inactive) | 59 µM (inactive) | 44.9 µM (inactive) | 37.5 µM (inactive) | 37.7 µM (inactive) | 28.1 µM (inactive)
9 | CCCCCCc1cc(C=O)sc1-c1ccc(-c2sc(-c3ccc(-c4ccc(-c5cc(CCCCCC)c(-c6ccc(-c7sc(C=O)cc7CCCCCC)s6)s5)s4)s3)cc2CCCCCC)s1 | > 100 µM (inactive) | > 100 µM (inactive) | > 100 µM (inactive) | 85.9 µM (inactive) | > 100 µM (inactive) | > 100 µM (inactive) | > 100 µM (inactive) | > 100 µM (inactive) | > 100 µM (inactive) | > 100 µM (inactive) | > 100 µM (inactive) | > 100 µM (inactive) | > 100 µM (inactive) | > 100 µM (inactive) | > 100 µM (inactive) | > 100 µM (inactive) | > 100 µM (inactive) | > 100 µM (inactive) | > 100 µM (inactive) | > 100 µM (inactive)
10 | O=C1OC2c3ccccc3C(=O)C2(c2ccccc2)N1c1ccccc1 (stereo not given) | 186 µM (inactive) | 132 µM (inactive) | > 200 µM (inactive) | > 200 µM (inactive) | > 200 µM (inactive) | 128 µM (inactive) | > 200 µM (inactive) | > 200 µM (inactive) | > 200 µM (inactive) | > 200 µM (inactive) | > 200 µM (inactive) | > 200 µM (inactive) | > 200 µM (inactive) | 72.6 µM (inactive) | > 200 µM (inactive) | > 200 µM (inactive) | > 200 µM (inactive) | > 200 µM (inactive) | 139 µM (inactive) | > 200 µM (inactive)
11 | COC1C(OC(=O)/C=C/C=C/C=C/C=C/C(=O)O)CCC2(CO2)C1C1(C)OC1CC=C(C)C (stereo not given) | 25.4 µM (inactive) | 20.1 µM (inactive) | 0.112 µM (active) | 34.5 µM (inactive) | 20.5 µM (inactive) | 21.4 µM (inactive) | 16.1 µM (inactive) | 18.2 µM (inactive) | 25.1 µM (inactive) | 12.6 µM (inactive) | 21.1 µM (inactive) | 17.4 µM (inactive) | 17.3 µM (inactive) | 24.5 µM (inactive) | 21 µM (inactive) | 35.2 µM (inactive) | 46.3 µM (inactive) | 21.6 µM (inactive) | 21.1 µM (inactive) | 27.4 µM (inactive)
12 | CC1=C(N2CC2)C(=O)C(C)=C(N2CC2)C1=O | 0.0753 µM (active) | 0.201 µM (active) | < 0.0111 µM (active) | 0.0834 µM (active) | 0.0998 µM (active) | 0.0434 µM (active) | 0.0579 µM (active) | 0.356 µM (active) | 0.0212 µM (active) | 0.206 µM (active) | 0.283 µM (active) | 0.112 µM (active) | 0.127 µM (active) | 0.0912 µM (active) | 0.143 µM (active) | 0.0469 µM (active) | 0.215 µM (active) | 0.417 µM (active) | 0.254 µM (active) | 0.17 µM (active)
13 | CC(=O)OC1(C)CC(C)C(=O)C(C(O)CC2CC(=O)NC(=O)C2)C1 (stereo not given) | 0.00444 µM (active) | 0.0118 µM (active) | 0.0121 µM (active) | 0.0329 µM (active) | 0.0166 µM (active) | 0.00507 µM (active) | 0.082 µM (active) | 0.00776 µM (active) | 0.0176 µM (active) | 0.00743 µM (active) | 0.0184 µM (active) | 0.013 µM (active) | 0.0127 µM (active) | 0.0219 µM (active) | 0.015 µM (active) | 0.0118 µM (active) | 0.031 µM (active) | 0.0334 µM (active) | 0.0178 µM (active) | 0.00172 µM (active)
